ChEMBL document CHEMBL4665869, “New thiazolopyrimidine as anticancer agents: Synthesis, biological evaluation, DNA binding, molecular modeling and ADMET study” (Bioorg Med Chem Lett, 2020)
Values after ≈ are worked out from the molar mass of the structure shown.

Key:
LOX IMVI = assay: Growth inhibition of human LOX IMVI cells at 10 uM relative to control; type: functional; settings: read-out: GI
MDA-MB-468 = assay: Growth inhibition of human MDA-MB-468 cells at 10 uM relative to control; type: functional; settings: read-out: GI
T47D = assay: Growth inhibition of human T47D cells at 10 uM relative to control; type: functional; settings: read-out: GI
CCRF-CEM = assay: Growth inhibition of human CCRF-CEM cells at 10 uM relative to control; type: functional; settings: read-out: GI
HL-60(TB) = assay: Growth inhibition of human HL-60(TB) cells at 10 uM relative to control; type: functional; settings: read-out: GI
K562 = assay: Growth inhibition of human K562 cells at 10 uM relative to control; type: functional; settings: read-out: GI
MOLT-4 = assay: Growth inhibition of human MOLT-4 cells at 10 uM relative to control; type: functional; settings: read-out: GI
RPMI-8226 = assay: Growth inhibition of human RPMI-8226 cells at 10 uM relative to control; type: functional; settings: read-out: GI
SR = assay: Growth inhibition of human SR cells at 10 uM relative to control; type: functional; settings: read-out: GI
A549 = assay: Growth inhibition of human A549 cells at 10 uM relative to control; type: functional; settings: read-out: GI
HOP-62 = assay: Growth inhibition of human HOP-62 cells at 10 uM relative to control; type: functional; settings: read-out: GI
HOP-92 = assay: Growth inhibition of human HOP-92 cells at 10 uM relative to control; type: functional; settings: read-out: GI
NCI-H226 = assay: Growth inhibition of human NCI-H226 cells at 10 uM relative to control; type: functional; settings: read-out: GI
NCI-H23 = assay: Growth inhibition of human NCI-H23 cells at 10 uM relative to control; type: functional; settings: read-out: GI
NCI-H322M = assay: Growth inhibition of human NCI-H322M cells at 10 uM relative to control; type: functional; settings: read-out: GI
NCI-H460 = assay: Growth inhibition of human NCI-H460 cells at 10 uM relative to control; type: functional; settings: read-out: GI
NCI-H522 = assay: Growth inhibition of human NCI-H522 cells at 10 uM relative to control; type: functional; settings: read-out: GI
SW-620 = assay: Growth inhibition of human SW-620 cells at 10 uM relative to control; type: functional; settings: read-out: GI
COLO 205 = assay: Growth inhibition of human COLO 205 cells at 10 uM relative to control; type: functional; settings: read-out: GI
HCC 2998 = assay: Growth inhibition of human HCC 2998 cells at 10 uM relative to control; type: functional; settings: read-out: GI
HCT-116 = assay: Growth inhibition of human HCT-116 cells at 10 uM relative to control; type: functional; settings: read-out: GI
HCT-15 = assay: Growth inhibition of human HCT-15 cells at 10 uM relative to control; type: functional; settings: read-out: GI
HT-29 = assay: Growth inhibition of human HT-29 cells at 10 uM relative to control; type: functional; settings: read-out: GI
KM12 = assay: Growth inhibition of human KM12 cells at 10 uM relative to control; type: functional; settings: read-out: GI
SF-268 = assay: Growth inhibition of human SF-268 cells at 10 uM relative to control; type: functional; settings: read-out: GI
SF-295 = assay: Growth inhibition of human SF-295 cells at 10 uM relative to control; type: functional; settings: read-out: GI
SF-539 = assay: Growth inhibition of human SF-539 cells at 10 uM relative to control; type: functional; settings: read-out: GI
SNB-19 = assay: Growth inhibition of human SNB-19 cells at 10 uM relative to control; type: functional; settings: read-out: GI
SNB-75 = assay: Growth inhibition of human SNB-75 cells at 10 uM relative to control; type: functional; settings: read-out: GI
U-251 = assay: Growth inhibition of human U-251 cells at 10 uM relative to control; type: functional; settings: read-out: GI
Malme-3M = assay: Growth inhibition of human Malme-3M cells at 10 uM relative to control; type: functional; settings: read-out: GI
M14 = assay: Growth inhibition of human M14 cells at 10 uM relative to control; type: functional; settings: read-out: GI
MDA-MB-435 = assay: Growth inhibition of human MDA-MB-435 cells at 10 uM relative to control; type: functional; settings: read-out: GI
SK-MEL-2 = assay: Growth inhibition of human SK-MEL-2 cells at 10 uM relative to control; type: functional; settings: read-out: GI
SK-MEL-28 = assay: Growth inhibition of human SK-MEL-28 cells at 10 uM relative to control; type: functional; settings: read-out: GI
SK-MEL-5 = assay: Growth inhibition of human SK-MEL-5 cells at 10 uM relative to control; type: functional; settings: read-out: GI
UACC-257 = assay: Growth inhibition of human UACC-257 cells at 10 uM relative to control; type: functional; settings: read-out: GI
UACC-62 = assay: Growth inhibition of human UACC-62 cells at 10 uM relative to control; type: functional; settings: read-out: GI
IGROV-1 = assay: Growth inhibition of human IGROV-1 cells at 10 uM relative to control; type: functional; settings: read-out: GI
OVCAR-4 = assay: Growth inhibition of human OVCAR-4 cells at 10 uM relative to control; type: functional; settings: read-out: GI
OVCAR-5 = assay: Growth inhibition of human OVCAR-5 cells at 10 uM relative to control; type: functional; settings: read-out: GI
OVCAR-8 = assay: Growth inhibition of human OVCAR-8 cells at 10 uM relative to control; type: functional; settings: read-out: GI
NCI/ADR-RES = assay: Growth inhibition of human NCI/ADR-RES cells at 10 uM relative to control; type: functional; settings: read-out: GI
SK-OV-3 = assay: Growth inhibition of human SK-OV-3 cells at 10 uM relative to control; type: functional; settings: read-out: GI
786-0 = assay: Growth inhibition of human 786-0 cells at 10 uM relative to control; type: functional; settings: read-out: GI
A498 = assay: Growth inhibition of human A498 cells at 10 uM relative to control; type: functional; settings: read-out: GI
ACHN = assay: Growth inhibition of human ACHN cells at 10 uM relative to control; type: functional; settings: read-out: GI
CAKI-1 = assay: Growth inhibition of human CAKI-1 cells at 10 uM relative to control; type: functional; settings: read-out: GI
RXF 393 = assay: Growth inhibition of human RXF 393 cells at 10 uM relative to control; type: functional; settings: read-out: GI
SN12C = assay: Growth inhibition of human SN12C cells at 10 uM relative to control; type: functional; settings: read-out: GI
TK-10 = assay: Growth inhibition of human TK-10 cells at 10 uM relative to control; type: functional; settings: read-out: GI
UO-31 = assay: Growth inhibition of human UO-31 cells at 10 uM relative to control; type: functional; settings: read-out: GI
PC-3 = assay: Growth inhibition of human PC-3 cells at 10 uM relative to control; type: functional; settings: read-out: GI
DU-145 = assay: Growth inhibition of human DU-145 cells at 10 uM relative to control; type: functional; settings: read-out: GI
MCF7 = assay: Growth inhibition of human MCF7 cells at 10 uM relative to control; type: functional; settings: read-out: GI
MDA-MB-231 = assay: Growth inhibition of human MDA-MB-231 cells at 10 uM relative to control; type: functional; settings: read-out: GI
Hs-578T = assay: Growth inhibition of human Hs-578T cells at 10 uM relative to control; type: functional; settings: read-out: GI
BT-549 = assay: Growth inhibition of human BT-549 cells at 10 uM relative to control; type: functional; settings: read-out: GI
DNA = assay: Displacement of methyl green from DNA (unknown origin) assessed as DNA intercalation after 24 hrs by colorimetric assay; type: nucleic-acid assay

CC1=CN2C(=NC(/C=C/c3ccc(C)cc3)=CC2c2ccc(C)cc2)S1 (centres undefined)
inhibition of growth at 10 µM (LOX IMVI): < 10%
inhibition of growth at 10 µM (MDA-MB-468): 11.3%
inhibition of growth at 10 µM (T47D): < 10%
inhibition of growth at 10 µM (CCRF-CEM): < 10%
inhibition of growth at 10 µM (HL-60(TB)): < 10%
inhibition of growth at 10 µM (K562): < 10%
inhibition of growth at 10 µM (MOLT-4): 12.6%
inhibition of growth at 10 µM (RPMI-8226): < 10%
inhibition of growth at 10 µM (SR): < 10%
inhibition of growth at 10 µM (A549): < 10%
inhibition of growth at 10 µM (HOP-62): < 10%
inhibition of growth at 10 µM (HOP-92): < 10%
inhibition of growth at 10 µM (NCI-H226): < 10%
inhibition of growth at 10 µM (NCI-H23): < 10%
inhibition of growth at 10 µM (NCI-H322M): < 10%
inhibition of growth at 10 µM (NCI-H460): < 10%
inhibition of growth at 10 µM (NCI-H522): 10.9%
inhibition of growth at 10 µM (SW-620): < 10%
inhibition of growth at 10 µM (COLO 205): < 10%
inhibition of growth at 10 µM (HCC 2998): < 10%
inhibition of growth at 10 µM (HCT-116): < 10%
inhibition of growth at 10 µM (HCT-15): < 10%
inhibition of growth at 10 µM (HT-29): < 10%
inhibition of growth at 10 µM (KM12): < 10%
inhibition of growth at 10 µM (SF-268): < 10%
inhibition of growth at 10 µM (SF-295): < 10%
inhibition of growth at 10 µM (SF-539): < 10%
inhibition of growth at 10 µM (SNB-19): < 10%
inhibition of growth at 10 µM (SNB-75): 13.7%
inhibition of growth at 10 µM (U-251): < 10%
inhibition of growth at 10 µM (Malme-3M): < 10%
inhibition of growth at 10 µM (M14): < 10%
inhibition of growth at 10 µM (MDA-MB-435): < 10%
inhibition of growth at 10 µM (SK-MEL-2): < 10%
inhibition of growth at 10 µM (SK-MEL-28): < 10%
inhibition of growth at 10 µM (SK-MEL-5): < 10%
inhibition of growth at 10 µM (UACC-257): < 10%
inhibition of growth at 10 µM (UACC-62): < 10%
inhibition of growth at 10 µM (IGROV-1): < 10%
inhibition of growth at 10 µM (OVCAR-4): < 10%
inhibition of growth at 10 µM (OVCAR-5): < 10%
inhibition of growth at 10 µM (OVCAR-8): < 10%
inhibition of growth at 10 µM (NCI/ADR-RES): < 10%
inhibition of growth at 10 µM (SK-OV-3): < 10%
inhibition of growth at 10 µM (786-0): < 10%
inhibition of growth at 10 µM (A498): < 10%
inhibition of growth at 10 µM (ACHN): < 10%
inhibition of growth at 10 µM (CAKI-1): < 10%
inhibition of growth at 10 µM (RXF 393): < 10%
inhibition of growth at 10 µM (SN12C): < 10%
inhibition of growth at 10 µM (TK-10): < 10%
inhibition of growth at 10 µM (UO-31): 19.1%
inhibition of growth at 10 µM (PC-3): < 10%
inhibition of growth at 10 µM (DU-145): < 10%
inhibition of growth at 10 µM (MCF7): < 10%
inhibition of growth at 10 µM (MDA-MB-231): < 10%
inhibition of growth at 10 µM (Hs-578T): < 10%
inhibition of growth at 10 µM (BT-549): < 10%
IC50 (DNA): 87.57 µg/mL (≈ 244 µM)
